From PubChem BioAssay AID1996
≈ marks a conversion by molar mass, not a printed value.

Conditions: buffer; pH 7.4; 200.0 µM
`COC(=O)c1ccc(C2NC(=O)c3c(sc(C)c3C)N2)cc1` (stereo not drawn) showed a solubility kinetic of 14.5 µg/mL (≈ 45.8 µM). With `Cc1ccccc1C(=O)NC(=S)Nc1ncccn1` the solubility kinetic was 15.6 µg/mL (≈ 57.3 µM). For `Cc1ccnc(SCC(N)=O)n1`, the solubility kinetic was > 27.5 µg/mL. In the case of `COc1ccc(/C=C2\C(=O)ON=C2c2ccccc2)cc1OC`, the solubility kinetic is reported as 45.7 µg/mL (≈ 148 µM). In the case of `O=S(=O)(CCN1CCOCC1)c1ccccc1`, the solubility kinetic is reported as > 38.3 µg/mL. Work on `O=C(CN1C(=O)NC(c2ccccc2)(c2ccccc2)C1=O)N1CCCCC1` yielded a solubility kinetic of 6.2 µg/mL (≈ 16.4 µM). Compound `Cc1cc(C)cc(NC(=O)Nc2ccccc2N2CCCCC2)c1` has a solubility kinetic of 25.5 µg/mL (≈ 78.8 µM). In the case of `Cc1ccc(NC(=O)COC(=O)C2C3CC4OC(=O)C2C4C3)cc1` (stereo not drawn), the solubility kinetic is reported as 47.3 µg/mL (≈ 144 µM). With `O=C(Nc1ccc(OCC(F)(F)C(F)F)cc1)c1ccncc1` the solubility kinetic was > 49.2 µg/mL. Work on `COc1ccc2c(c1)CCc1c(C(=O)NCC(C)C)noc1-2` yielded a solubility kinetic of 1.5 µg/mL (≈ 4.99 µM). `Cc1nc2c3c(sc2c(=O)[nH]1)NC(=O)CC3c1ccccc1Cl` (stereo not drawn) showed a solubility kinetic of 1.5 µg/mL (≈ 4.34 µM). `Cc1cc(C=O)c(C)n1C(C)C` showed a solubility kinetic of 23 µg/mL (≈ 139 µM). With `CCc1nn(CC(=O)N2CCC(C)CC2)c(=O)c2cccn12` the solubility kinetic was > 45.4 µg/mL. In the case of `S=C(c1ccc(-c2ccc(Cl)cc2Cl)o1)N1CCCC1`, the solubility kinetic is reported as < 0.7 µg/mL. `CNC(=O)Nc1cccc(-c2ccnc(C)n2)c1` gave a solubility kinetic of 27.5 µg/mL (≈ 114 µM). For `CCOc1ccc(Nc2nc(N)c([N+](=O)[O-])c(N3CCOCC3)n2)cc1`, the solubility kinetic was 2.4 µg/mL (≈ 6.66 µM). For `COc1ccc(S(=O)(=O)NCCCN2CCOCC2)cc1F`, the solubility kinetic was > 49.9 µg/mL. In the case of `O=C(COC(=O)c1ccc([N+](=O)[O-])o1)NCc1ccccc1`, the solubility kinetic is reported as > 45.6 µg/mL. `Br.C=CCn1c(C)csc1=Nc1ccccc1C` showed a solubility kinetic of 10.9 µg/mL. `CSc1ccc(CN2C(=O)NC3(CCCCCCC3)C2=O)cc1` showed a solubility kinetic of 5.6 µg/mL (≈ 16.8 µM). For `Cc1cccc(NCc2cccc3ccccc23)n1`, the solubility kinetic was 9.8 µg/mL (≈ 39.5 µM). With `COc1cccc(OCc2nc(-c3ccc(Br)o3)no2)c1` the solubility kinetic was 7.1 µg/mL (≈ 20.2 µM). For `COc1ccc(CNC(=O)C2CCN(C(=O)c3ccco3)CC2)cc1`, the solubility kinetic was 45.8 µg/mL (≈ 134 µM). With `CCC(C)c1ccccc1NC(=O)COC(=O)C1=NN(c2ccccc2)C(=O)CC1` (stereo not drawn) the solubility kinetic was > 61.1 µg/mL. `CCN(C(=O)COC(=O)/C=C/c1ccco1)C1CCCCC1` showed a solubility kinetic of 39.1 µg/mL (≈ 128 µM). In the case of `Cc1ccc2c(c1)c1c3n2CCNC3CCC1.Cl` (stereo not drawn), the solubility kinetic is reported as > 39.4 µg/mL. Compound `Cc1ccc(S(=O)(=O)N(C)CC(=O)NCC(=O)Nc2ccc(F)c(F)c2F)cc1` has a solubility kinetic of 6.4 µg/mL (≈ 14.9 µM). For `Cn1c(NC2CCCCC2)c(N=O)c(=O)n(C)c1=O`, the solubility kinetic was > 39.9 µg/mL. For `O=[N+]([O-])c1ccc(COc2cccnc2)cc1`, the solubility kinetic was > 34.5 µg/mL. With `CC(C)C(=O)Nc1ccc(NC(=O)CCc2ccccc2)cn1` the solubility kinetic was > 46.7 µg/mL. For `Cc1ccccc1NC1(C#N)CCCCC1`, the solubility kinetic was 3.6 µg/mL (≈ 16.8 µM). `CC1CCN(C(=O)/C(=C\c2ccccc2)NC(=O)c2ccccc2)CC1` gave a solubility kinetic of 52.2 µg/mL (≈ 150 µM). `COc1ccccc1NS(=O)(=O)c1cccc2nsnc12` showed a solubility kinetic of 35 µg/mL (≈ 109 µM). Compound `Nc1cccc(Oc2ccc3c(c2)C(=O)NC3=O)c1` has a solubility kinetic of 36.6 µg/mL (≈ 144 µM). `Cn1c(/C=C/c2ccccc2[N+](=O)[O-])nc2ccccc2c1=O` showed a solubility kinetic of 0.6 µg/mL (≈ 1.95 µM). `CSc1cccc(NC(N)=O)c1` showed a solubility kinetic of 25.1 µg/mL (≈ 138 µM). Compound `O=C(CC1CCCCC1)NCc1ccccc1` has a solubility kinetic of 30.5 µg/mL (≈ 132 µM). With `CN1CN=C(NS(=O)(=O)c2ccc([N+](=O)[O-])cc2)NC1` the solubility kinetic was > 44.9 µg/mL. Work on `CC(C)CCC(CCN1CCCC1)c1ccc2c(c1)OCO2.O=C(O)C(=O)O` (stereo not drawn) yielded a solubility kinetic of 48.4 µg/mL. In the case of `Cc1ccc(C(=O)NCCC(=O)N2CCOCC2)cc1`, the solubility kinetic is reported as > 41.5 µg/mL. `CCC(C)NC(=O)c1ccc(CSCc2ccc(Cl)cc2)o1` (stereo not drawn) gave a solubility kinetic of 22.6 µg/mL (≈ 66.9 µM). With `COc1ccc(NC(=O)COC(=O)Cc2coc3cc(OC)ccc23)c(OC)c1` the solubility kinetic was 11.8 µg/mL (≈ 29.5 µM). Compound `CC(NCc1cccc(S(=O)(=O)N(C)C)c1)c1ccc(F)cc1` (stereo not drawn) has a solubility kinetic of 37.1 µg/mL (≈ 110 µM). Work on `O=C(COC(=O)c1cc(=O)[nH]c2ccccc12)c1ccccc1` yielded a solubility kinetic of 8.8 µg/mL (≈ 28.6 µM). In the case of `c1ccc(C2CC(c3ccccc3)C(c3ccccc3)N2)cc1` (stereo not drawn), the solubility kinetic is reported as 8.4 µg/mL (≈ 28.1 µM). `CC(O)c1cccc(NC(=O)CCCc2ccccc2)c1` (stereo not drawn) gave a solubility kinetic of 39 µg/mL (≈ 138 µM). In the case of `O=C(c1ccc2c(c1)OCCO2)N1CCN(c2ccccn2)CC1`, the solubility kinetic is reported as > 48.8 µg/mL. With `CCCc1ccc(OCC(O)CN2CCCC2)cc1.Cl` (stereo not drawn) the solubility kinetic was 37.2 µg/mL.
